A short description of data set [1]: Pharmacokinetic test in rats. It is filed as in vivo, Sprague-Dawley (SD) rats. To be noted: male SD rats, intragastric administration of 10 mg/kg; for AUC(0-t) / Cmax / Tmax: Sprague-Dawley, rat, po, plasma; for AUC(0-t): read-out: area under the blood concentration-time curve AUC0-t; for Cmax: read-out: peak concentration Cmax; for Tmax: read-out: peak time of blood concentration tmax. As for the experimental part:
Pharmacokinetic Test in Rats
The pharmacokinetic study of the present invention was performed in rats. The pharmacokinetic behavior of the positive control INT-747 and a representative compound of the present invention, such as Example 14-β, was studied in rats, and their pharmacokinetic characteristics were evaluated.
(1) Three male Sprague-Dawley (SD) rats were used, which were supplied by Sippr-BK laboratory animal Co. Ltd. Animal Production License No. SOCK (Shanghai) 2008-0016.
(2) Then, 10 mg of the sample was weighed and added with 10 mL of 0.5% CMC-Na aqueous solution, the mixture was fully shaken to make a 1 mg/ml uniform solution, and the remaining liquid samples were used for quantitative analysis.
(3) Three male SD rats were intragastrically administered at 10 mg/kg with a volume of 10 mL/kg after fasting for one night.
(4) About 0.05 mL of underjaw intravenous blood was collected before and 0.5, 1.0, 2.0, 4.0, 6.0, 8.0, 24.0, 30.0 hours after administration, and then placed in a EDTA-K2 test tube. The blood was centrifuged at 6000 rpm for 5 minutes to isolate the plasma, which was stored at −80° C. The rats were feed 4 hours after administration.
(1) Instruments and Equipment: API 4000 triple quadrupole mass spectrometer, Applied Biosystems, USA; Shimadzu LC-20AD high performance liquid chromatography system, Shimadzu, Japan.
(2) Condition of chromatography: The chromatographic column was Phenomenex gemiu 5 um C18 50×4.6 mm; mobile phase was acetonitrile: 0.1% TFA aqueous solution (gradient elution); flow rate (ml/min) was 0.8 ml/min.

Data set [2] deals with T1, FXR receptor (Homo sapiens, UniProt Q96RI1).
T1 construct: Prepared 2× GST-labeled FXR-LBD/anti-GST Eu mixture to the required volume, the concentration of GST-FXR-LBD was 6 nM; purchased Life Technology Invitrogen PV4835
T1 sequence (Q96RI1 262-486 limits assumed): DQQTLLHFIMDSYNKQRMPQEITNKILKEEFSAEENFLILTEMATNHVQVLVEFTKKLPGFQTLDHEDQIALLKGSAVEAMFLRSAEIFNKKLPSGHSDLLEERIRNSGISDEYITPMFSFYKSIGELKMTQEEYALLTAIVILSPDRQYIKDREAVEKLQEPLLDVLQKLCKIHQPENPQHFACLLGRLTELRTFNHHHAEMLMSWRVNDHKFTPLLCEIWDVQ
T1 sequence (Q15788 676-700 partner limits assumed): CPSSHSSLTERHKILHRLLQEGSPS
The data set is described as follows: FXR receptor binding activity assay (TR-FRET; GST-FXR-LBD / SRC1 fragment). It counts as biochemical. To be noted: FXR-LBD binding to SRC1 fragment, agonist rate. From the text: FXR Receptor Binding Activity Assay (Time-Resolved Fluorescence Detection Method TR-FRET Method)
To test the effect of the present compounds on FXR receptor binding, we selected the commercial FXR receptor binding activity assay kit to test the effect of the compounds on FXR and its binding protein fragments (LBD structural domain binds to SRC1 fragment) (kit supplier: Life Technology Invitrogen Catalog: PV4835; cisbio Catalog: 610SAXLA and 61GSTKLA). Specific method was described in the kit instructions. The operation was as follows:
1. Prepared 2× GST-labeled FXR-LBD/anti-GST Eu mixture to the required volume, the concentration of GST-FXR-LBD was 6 nM, Eu was 50 nL/well.
2. Prepared 2× biotin-labeled SRC1/[…] (SA-APC) mixture to the required volume, the concentration of SRC1 was 1000 nM, and […] was 50 nL/well.
3. 2× GST-FXR/Eu and SRC1/SA-APC were mixed in a proportion of 1:1.
4. 20 μL of a mixture of GST-FXR/Eu and SRC1/SA-APC was added to a 384-well plate containing the compounds to be tested.
5. Centrifuged for 1 minute at 1000 rpm; incubated for 180 minutes at room temperature.
6. Time-resolved fluorescence detection: EnVision reader.
(1) the value at 665 nm divided by the value at 615 nm;
(2) calculating the agonist rate
Agonist rate=(X−Min)/(Max−Min)*100% • X represents the 665/615 value for each concentration; • Min represents the 665/615 value without adding compound; • Max represents the 665/615 value of the reference compound.
Background: In TR-FRET formats the signal depends on donor and acceptor labels being close together.

Data set [3] deals with T2, FXR (Homo sapiens, UniProt Q96RI1).
T2 sequence (Q96RI1 262-486 limits assumed): T1 sequence (Q96RI1 262-486 limits assumed)
The data set is described as follows: FXR reporter gene expression test (dual luciferase, FXR Gal4 reporter in HepG2 cells). Particulars: HepG2 cells transiently transfected with FXR Gal4 reporter, 18 hours. It is filed as cell-based. The source says:
FXR Reporter Gene Expression Test
To analyze the effect of testing compounds on FXR-regulated gene expression, we used Promega's dual luciferase assay system (Promega #E1980) to detect the effect of the compounds on the FXR reporter gene in HepG2 hepatoma cell line (ATCC #HB-8065), which was transiently transfected with the FXR Gal4 reporter gene fragment. Specific experimental methods are as follows:
1. HepG2 Cell Culture and Maintenance
Cells were digested and cells with appropriate density were grown in 10 mL complete medium and then cultivated for 24 hours under 37° C., 5% CO2 humidity conditions.
2. Cell planting and transfection. Transfection reagent was Fugene HD (Promega#E231A)
(1) The transfection mixture was prepared according to the following table
(2) The mixture in the tube was vigorously mixed and incubated at room temperature for 15 minutes;
(3) The cells were digested in the culture dish and counted;
(4) The cell suspension was diluted to the desired volume of 600,000/mL (96-well plates 100 μL/well);
(5) The required volume of the transfection mixture was added to the cell suspension, followed by plating at 100 μL/well;
(6) Incubated for 24 hours under 37° C., 5% CO2 humidity conditions.
3. Treatment of the Compound
(1) 10 mM of mother liquor of the compound was prepared and then serially diluted 3 times with DMSO;
(2) 10 μL of compound was added to 90 μL of complete medium (10×);
(3) 5 μL of the solution of the compound (21×) was added to each well;
(4) Incubated for 18 hours under 37° C., 5% CO2 humidity conditions.
The firefly luciferase and the renilla luciferase signal (Promega #E1980) were detected by Promega's dual-luciferase assay system.
(2) Calculating the agonist rate
Agonist rate=(X−Min)/(Max−Min)*100% • X represents the F/R value of each concentration; • Min represents the F/R value without adding compound; • Max represents the F/R value of the reference compound.
(3) EC50 was calculated according to GraphPrism 5.0
Background: Reporter assays use an easily measured gene product as a stand-in for the process of interest.

What is called EC50 is the concentration giving half of the maximal effect. Low readings indicate a more potent agent, high ones a less potent agent. For `CC[C@H]1[C@@H](O)C2C3CCC([C@H](C)CC4SC(=O)NC4=O)[C@@]3(C)CCC2[C@@]2(C)CC[C@@H](O)C[C@@H]12` (single isomer, unassigned) [Example 14-β], in data set [1], the AUC(0-t) was found to be 41800 ng·h/mL, the Cmax turned out to be 7580 ng/mL, the Tmax is 60 min and the “exposed quantity in the tested animals compared with positive control INT-747” value is on record as “significantly better than that of the positive control INT-747”. The compound further had an EC50 in data set [2] of 4 nM. In addition, in data set [3], a half-maximal effect (EC50) was put at 57 nM.

As to `CC[C@H]1[C@@H](O)[C@@H]2[C@H](CC[C@]3(C)[C@@H]([C@H](C)CCC(=O)O)CC[C@@H]23)[C@@]2(C)CC[C@@H](O)C[C@@H]12` [INT-747, reference compound], in data set [1], the AUC(0-t) came out at 9030 ng·h/mL, the Cmax is 4410 ng/mL and the Tmax turned out to be 30 min.

The values are drawn from patent US20180148470A1, “CHOLIC ACID DERIVATIVE, AND PREPARATION METHOD AND MEDICAL USE THEREOF” (Jiangsu Hansoh Pharmaceutical Group Co., Ltd., priority 2015, published 2018).
